{"source": "patent US4996235A", "about": "“3,4-diphenylbutanamines” (Eli Lilly and Company, priority 1987, dated 1991)", "key": {"[1]": {"system": "norepinephrine uptake (rat cerebral cortex synaptosomes)", "experiment": "Synaptosomal uptake of 14C-l-norepinephrine (14C-NE), inhibition in vitro", "format": "biochemical, Male Sprague-Dawley rats", "details": "rat cortical synaptosomes, 37° C., 5 min, 100 nM 14C-NE", "experimental": "(§1) This general procedure is set forth by Wong et al., in Drug Development Research 6:397-403 (1985).\n(§2) Male Sprague-Dawley rats (110-150 g) from Harlan Industries (Cumberland, Ind.) were fed a Purina Chow ad libitum for at least 3 days before being used in the studies. Rats were killed by decapitation. Whole brains were removed and dissected. Cerebral cortex was homogenized in 9 volumes of a medium containing 0.32 M sucrose and 10 mM glucose. Crude synaptosomal preparations were isolated after differential centrifugation at 1,000 g for 10 min. and 17,000 g for 28 min. The final pellets were suspended in the same medium and kept in ice until use within the same day.\n(§3) Synaptosomal uptake of ^3 H-serotonin(^3 H-5-hydroxytryptaine, ^3 H-5HT) and ^14 C-l-norepinephrine (^14 C-NE) was determined as follows. Cortical synaptosomes (equivalent to 1 mg of protein) were incubated at 37° C. for 5 min in 1 ml of Krebs-bicarbonate medium containing also 10 mM glucose, 0.1 mM iproniazid, 1 mM ascorbic acid, 0.17 mM EDTA, 50 nM ^3 H-5HT and 100 nM ^14 C-NE. The reaction mixture was immediately diluted with 2 ml of ice-chilled Krebs-bicarbonate buffer and filtered under vacuum with a cell harvester (Brandel, Gaithersburg, Md.). […] Radioactivity was measured by a liquid scintillation spectrophotometer. […]"}, "[2]": {"system": "5HT uptake (rat cerebral cortex synaptosomes)", "experiment": "Synaptosomal uptake of 3H-serotonin (3H-5HT), inhibition in vitro", "format": "biochemical, Male Sprague-Dawley rats", "details": "rat cortical synaptosomes, 37° C., 5 min, 50 nM 3H-5HT", "experimental": "as §1, §2, §3"}}, "note": "Structures can show the parent of a compound that is named as a salt."}
{"smiles": "CNCCC(Cc1ccc(C(F)(F)F)cc1)c1ccccc1", "note": "(stereo not shown) [Example 1, N-Methyl-3-phenyl-4-(4-trifluoromethylphenyl)-butanaminium chloride]", "values": [{"measurement": "IC50", "setting": "[1]", "value": 7600, "unit": "nM"}, {"measurement": "IC50", "setting": "[2]", "value": 250, "unit": "nM"}]}
{"smiles": "CNCCC(Cc1ccccc1C)c1ccccc1", "note": "(stereo not shown) [Example 2, N-Methyl-3-phenyl-4-(2-methylphenyl)-butanaminium tosylate]", "values": [{"measurement": "IC50", "setting": "[1]", "value": 100, "unit": "nM"}, {"measurement": "IC50", "setting": "[2]", "value": 330, "unit": "nM"}]}
